# Reference: US8263777B2, “Aminopyrazole triazolothiadiazole inhibitor of c-Met protein kinase” (Vertex Pharmaceuticals Incorporated, priority 2010, dated 2012)
# Values joined by “and” are separate entries in the source; they are usually repeats but may differ in a detail not shown here. Equal entries are not always repeated.
# Tests used:
# c-Met [1] = molecular target: T1, c-Met (Homo sapiens, UniProt P08581); assay: c-Met kinase inhibition assay (radiometric, 33P-ATP, polyE4Y); assay type: biochemical; details: 0.5 nM c-Met, 35 μM ATP, competitive tight-binding fit
# T1 sequence (P08581 25-1390): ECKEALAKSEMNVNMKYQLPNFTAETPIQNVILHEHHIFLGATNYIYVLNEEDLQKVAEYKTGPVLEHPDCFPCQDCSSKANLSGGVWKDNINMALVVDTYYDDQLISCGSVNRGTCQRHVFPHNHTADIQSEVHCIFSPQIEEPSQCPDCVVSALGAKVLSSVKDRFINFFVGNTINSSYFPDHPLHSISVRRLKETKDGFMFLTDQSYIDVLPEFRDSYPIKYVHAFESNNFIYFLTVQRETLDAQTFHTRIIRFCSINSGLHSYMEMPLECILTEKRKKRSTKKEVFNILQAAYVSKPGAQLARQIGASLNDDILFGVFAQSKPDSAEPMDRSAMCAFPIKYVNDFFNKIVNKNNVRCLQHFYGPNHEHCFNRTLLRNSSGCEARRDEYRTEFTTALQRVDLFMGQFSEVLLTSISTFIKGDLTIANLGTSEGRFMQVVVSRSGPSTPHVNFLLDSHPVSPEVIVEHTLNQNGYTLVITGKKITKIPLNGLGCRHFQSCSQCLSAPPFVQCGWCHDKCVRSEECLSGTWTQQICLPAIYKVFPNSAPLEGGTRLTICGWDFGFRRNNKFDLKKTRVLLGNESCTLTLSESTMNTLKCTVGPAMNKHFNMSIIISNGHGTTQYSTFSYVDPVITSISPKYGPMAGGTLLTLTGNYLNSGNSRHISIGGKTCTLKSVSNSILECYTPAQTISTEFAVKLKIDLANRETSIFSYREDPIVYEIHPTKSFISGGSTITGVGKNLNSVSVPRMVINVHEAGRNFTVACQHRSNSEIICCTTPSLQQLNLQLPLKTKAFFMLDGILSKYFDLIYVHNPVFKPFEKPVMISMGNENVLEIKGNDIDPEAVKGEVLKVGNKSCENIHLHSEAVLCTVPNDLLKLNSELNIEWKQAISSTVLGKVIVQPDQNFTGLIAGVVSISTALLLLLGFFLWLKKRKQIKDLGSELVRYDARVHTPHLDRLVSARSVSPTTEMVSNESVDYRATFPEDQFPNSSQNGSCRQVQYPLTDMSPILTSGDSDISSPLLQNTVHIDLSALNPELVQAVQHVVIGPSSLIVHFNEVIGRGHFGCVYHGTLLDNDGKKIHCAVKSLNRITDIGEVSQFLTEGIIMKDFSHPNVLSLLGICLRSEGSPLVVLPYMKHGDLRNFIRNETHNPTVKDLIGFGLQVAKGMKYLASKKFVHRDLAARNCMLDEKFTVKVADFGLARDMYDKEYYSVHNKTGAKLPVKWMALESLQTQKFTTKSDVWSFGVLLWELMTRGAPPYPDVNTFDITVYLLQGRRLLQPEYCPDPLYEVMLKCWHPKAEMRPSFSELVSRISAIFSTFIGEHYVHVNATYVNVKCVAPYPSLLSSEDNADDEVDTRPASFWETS
# Experimental: Compound 1 was screened for its ability to inhibit c-Met kinase using a standard radiometric assay. Briefly, in this kinase assay the transfer of the terminal ^33P-phosphate in ^33P-ATP to substrate polyE4Y is interrogated. The assay was carried out in 96-well plates to a final volume of 100 μL per well containing 0.5 nM c-Met, 100 mM HEPES (pH 7.5), 10 mM MgCl2, 25 mM NaCl, 0.01% BSA, 1 mM DTT, 0.5 mg/mL polyE4Y, and 35 μM ATP. Accordingly, Compound 1 was dissolved in DMSO to make a 10 mM initial stock solution. Serial dilutions in DMSO were then made to obtain the final solutions for the assay. A 1.5 μL aliquot of DMSO or inhibitor in DMSO was added to each well, followed by the addition of ^33P-ATP, and finally the addition of c-Met and polyE4Y (obtained from Sigma). After 20 min, the reaction was quenched with 50 μL of 30% trichloroacetic acid (TCA) containing 4 mM ATP. The reaction mixture was transferred to the 0.66 mm GF filter plates (Corning) and washed three times with 5% TCA. Following the addition of 50 μL of Ultimate Gold™ high efficiency scintillant (Packard Bioscience), the samples were counted in a Packard TopCount NXT Microplate Scintillation and Luminescence Counter (Packard BioScience). The Ki values were calculated using Microsoft Excel Solver macros to fit the data to the kinetic model for competitive tight-binding inhibition.
# [2] = system: SNU-5 gastric cancer cells; assay: Inhibition of tumor growth of subcutaneously implanted SNU-5 cells in SCID mice; assay type: in vivo; details: for SNU-5 tumor weight at study termination, Mean: Day 38, group mean; for SNU-5 tumor weight at study termination, Mean / SNU-5 tumor weight at study termination, individual animal: in mg (unit assumed); for SNU-5 tumor weight at study termination, individual animal: Day 38, one value per animal ID, listed as Compound 3; for percent tumor weight reduction vs vehicle control: P<0.002
# Experimental: SNU-5 cells (CRL-5973, American Type Culture Collection, Manassas, Va.) were cultured in ISCOVE's Modified Dulbecco's Medium (IMDM) (Invitrogen, Carlsbad, Calif.) supplemented with 10% fetal bovine serum (FBS) (Hyclone, Logan, Utah), 100 units/mL of penicillin, […] of streptomycin (Invitrogen, Carlsbad, Calif.), and 2 mM L-glutamine. Cells were cultured for fewer than 4 passages prior to implantation. Female SCID mice (Fox Chase SCID, CB-17, mice weighing 17 to 19 g obtained from Charles River Laboratories, Wilmington, Mass.) were injected subcutaneously (s.c.) with 5×10^6 SNU-5 cells into the right dorsal axillary region on Day 0. Treatments were initiated on Day 25 when the average tumor volume reached approximately 358 mm^3.
# Compound 1, formulated in a vehicle containing 30% (w/v) Propylene Glycol and 10% Solutol (Sigma-Aldrich, St Louis, Mo.) as a suspended homogenous form, was administered orally (p.o.) once daily (QD) at total daily doses of 3, 10, and 30 mg/kg/day for 14 days. Tumor volumes (calculated using the ellipsoid formula, (length×width^2)/2, where length and width represented the largest and smallest dimensions of the tumor, respectively) were recorded for two weeks after the initiation of treatment. The study was terminated 38 days after tumor implantation.
# [3] = system: A549 cells (A549HGF-lm1115); assay: Inhibition of tumor metastasis to the lungs, subcutaneous A549HGF tumors in SCID mice; assay type: in vivo; details: for Luminescence of homogenized lung tissue, Mean / Luminescence of homogenized lung tissue, individual animal: study termination; for Luminescence of homogenized lung tissue, Mean: group mean; for Luminescence of homogenized lung tissue, individual animal: one value per animal ID
# Experimental: Compound 1 was investigated for its ability to inhibit the metastasis of subcutaneously implanted tumors to the lungs of severe combined immunodeficient (SCID) mice. Accordingly, A549 cells (A549HGF-lm1115, transfected with hepatocyte growth factor, luciferase, and green fluorescent protein) were cultured in RPMI1640 medium (Invitrogen, Carlsbad, Calif.) supplemented with 10% fetal bovine serum (FBS) (Hyclone, Logan, Utah), 100 units/mL of penicillin, […] of streptomycin (Invitrogen, Carlsbad, Calif.), and 2 mM L-glutamine for fewer than 4 passages prior to implantation. 3-(Difluoro(quinolin-6-yl)methyl)-N-(1-methyl-1H-pyrazol-4-yl)-[1,2,4]triazolo[3,4-b][1,3,4]thiadiazol-6-amine (Compound 1) was formulated in a vehicle containing 0.5% (w/v) methylcellulose (Sigma-Aldrich, St Louis, Mo.) and 0.1% (v/v) Tween 80™ as a dissolved homogenous form, which was prepared fresh each day and administered to mice via oral gavage at a dosing volume of 10 mL/kg.
# Female SCID mice were injected subcutaneously (s.c.) with 5×10^6 A549HGF cells into the right dorsal axillary region on Day 0. Treatments were initiated on the same day by oral administration (p.o.) of Compound 1 once daily (QD) at total daily doses of 30 and 60 mg/kg/day for 22 days. Ectopic tumor measurements were recorded twice a week for 3 weeks after the initiation of treatment.
# In order to evaluate the anti-metastatic potential of Compound 1, at the termination of the study all animal lung tissues were harvested and lysed by homogenization for ex vivo quantification via luciferase luminescence.
# c-Met [4] = molecular target: T1, c-Met; assay: Inhibition of c-Met activity in Snu5 gastric carcinoma cells (Snu5-AP1-Luc-Pest luciferase); assay type: cell-based; design: is a human gastric carcinoma known to overexpress c-Met, which is constitutively active; host or cells: Snu5 human gastric carcinoma cells transduced with a 6xAP1-luciferase-PEST reporter (Snu5-AP1-Luc-Pest); details: 6 hours, luciferase luminescence
# Excerpt: Compound 1 was also screened for its ability to inhibit the Luciferase-induced signal in an engineered Snu5 cell line. Snu5 [obtained from American Type Culture Collection (Catalog number CRL-5973)] is a human gastric carcinoma known to overexpress c-Met, which is constitutively active. The cell line was transduced with the retrovirus, pCLPCX, which contains a genetic construct consisting of 6×AP1 promoter response elements and a luciferase gene having a C-terminal PEST sequence (proteolytic signal from mouse ornithine decarboxylase, which reduces the half-life of the luciferase). The constitutively active c-Met activates cellular pathways (principally MAP kinase), resulting in AP-1-induced transcription of luciferase-PEST and translation into the final product, the activity of which is quantifiable as a chemiluminescent readout upon the addition of luciferin (Steady-Glo from Promega.). Residual luminescence is strongly correlated to the inhibition of c-Met. A stable cell line was obtained by selecting the new cell line (Snu5-AP1-Luc-Pest) with puromycin. […] The Snu5-AP1-Luc-Pest cells were counted and diluted to 200,000-cells/mL solution. […] The plate was read on a 1450 Microbeta Liquid Scintillation and Luminescence Counter (Perkin-Elmer).
smiles,measurement,setting,value
"Cn1cc(Nc2nn3c(C(F)(F)c4ccc5ncccc5c4)nnc3s2)cn1 [Compound 1, 3-(difluoro(quinolin-6-yl)methyl)-N-(1-methyl-1H-pyrazol-4-yl)-[1,2,4]triazolo[3,4-b][1,3,4]thiadiazol-6-amine]",Ki,c-Met [1],< 20 nM
same,SNU-5 tumor volume,"[2]; 3 mg/kg/day p.o. QD, Day 25 (treatment start), mean ± standard error",356.1 ± 24.5 mm^3
same,SNU-5 tumor volume,"[2]; 3 mg/kg/day p.o. QD, Day 28, mean ± standard error",432.6 ± 31.2 mm^3
same,SNU-5 tumor volume,"[2]; 3 mg/kg/day p.o. QD, Day 31, mean ± standard error",511.9 ± 36.3 mm^3
same,SNU-5 tumor volume,"[2]; 3 mg/kg/day p.o. QD, Day 35, mean ± standard error",587.8 ± 39.5 mm^3
same,SNU-5 tumor volume,"[2]; 3 mg/kg/day p.o. QD, Day 38, mean ± standard error",670.4 ± 46.2 mm^3
same,"SNU-5 tumor weight at study termination, Mean",[2]; 3 mg/kg/day,619.9
same,"SNU-5 tumor weight at study termination, individual animal",[2]; 3 mg/kg/day,619 and 505 and 525 and 485 and 605 and 655 and 851 and 770 and 405 and 790 and 938 and 508 and 368 and 679 and 596
same,percent tumor weight reduction vs vehicle control,[2]; 3 mg/kg/day,34.5%
same,SNU-5 tumor volume,"[2]; 10 mg/kg/day p.o. QD, Day 25 (treatment start), mean ± standard error",358.0 ± 17.1 mm^3
same,SNU-5 tumor volume,"[2]; 10 mg/kg/day p.o. QD, Day 28, mean ± standard error",354.2 ± 21.7 mm^3
same,SNU-5 tumor volume,"[2]; 10 mg/kg/day p.o. QD, Day 31, mean ± standard error",381.8 ± 25.6 mm^3
same,SNU-5 tumor volume,"[2]; 10 mg/kg/day p.o. QD, Day 35, mean ± standard error",406.6 ± 23.4 mm^3
same,SNU-5 tumor volume,"[2]; 10 mg/kg/day p.o. QD, Day 38, mean ± standard error",453.9 ± 27.3 mm^3
same,"SNU-5 tumor weight at study termination, Mean",[2]; 10 mg/kg/day,385.7
same,"SNU-5 tumor weight at study termination, individual animal",[2]; 10 mg/kg/day,319 and 476 and 358 and 469 and 279 and 660 and 418 and 400 and 387 and 410 and 349 and 275 and 305 and 371 and 309
same,percent tumor weight reduction vs vehicle control,[2]; 10 mg/kg/day,59.3%
same,SNU-5 tumor volume,"[2]; 30 mg/kg/day p.o. QD, Day 25 (treatment start), mean ± standard error",359.5 ± 35.1 mm^3
same,SNU-5 tumor volume,"[2]; 30 mg/kg/day p.o. QD, Day 28, mean ± standard error",281.3 ± 28.7 mm^3
same,SNU-5 tumor volume,"[2]; 30 mg/kg/day p.o. QD, Day 31, mean ± standard error",256.5 ± 23.6 mm^3
same,SNU-5 tumor volume,"[2]; 30 mg/kg/day p.o. QD, Day 35, mean ± standard error",255.7 ± 21.1 mm^3
same,SNU-5 tumor volume,"[2]; 30 mg/kg/day p.o. QD, Day 38, mean ± standard error",273.4 ± 24.2 mm^3
same,"SNU-5 tumor weight at study termination, Mean",[2]; 30 mg/kg/day,251.2
same,"SNU-5 tumor weight at study termination, individual animal",[2]; 30 mg/kg/day,180 and 173 and 260 and 420 and 250 and 156 and 350 and 327 and 150 and 246
same,tumor regression by tumor volume analysis,"[2]; 30 mg/kg/day, P<0.001",−23.9%
same,percent tumor weight reduction vs vehicle control,[2]; 30 mg/kg/day,73.5%
same,anti-tumor activity,"[2]; all three dose levels tested (3, 10, 30 mg/kg/day)",significant and dose-dependent anti-tumor activity
same,"Luminescence of homogenized lung tissue, Mean",[3]; 30 mg/kg/day,12740.8 counts
same,"Luminescence of homogenized lung tissue, individual animal",[3]; 30 mg/kg/day,3890 counts and 5270 counts and 2270 counts and 2620 counts and 17200 counts and 21300 counts and 6430 counts and 4340 counts and 65400 counts and 2230 counts and 16300 counts and 5640 counts
same,formation of lung metastases,"[3]; 60 mg/kg/day compared to vehicle controls, p<0.02",significantly inhibits
same,"Luminescence of homogenized lung tissue, Mean","[3]; 60 mg/kg/day, p<0.02 vs vehicle",6672.3±1986.1 counts and 6672.3 counts
same,"Luminescence of homogenized lung tissue, individual animal",[3]; 60 mg/kg/day,2170 counts and 1480 counts and 2540 counts and 19300 counts and 21100 counts and 3800 counts and 16500 counts and 1440 counts and 2620 counts and 2920 counts and 5540 counts and 4860 counts and 2470 counts
same,change in primary A549 tumor cell growth at the site of implantation vs vehicle,"[3]; 30 or 60 mg/kg/day p.o. QD, 22 days",no significant change
same,IC50,c-Met [4],< 20 nM
